# Activity calls are given as the source filed them. How the calls were made is not given here.
# Tested on: CCRIS mutagenicity, Ames/micronucleus/aberration tests
# Assay: CCRIS mutagenicity studies
# [1] = Test System: AMES SALMONELLA TYPHIMURIUM, Strain/Indicator: TA98, Metabolic Activation: NONE, Method: STANDARD PLATE
# [2] = Test System: AMES SALMONELLA TYPHIMURIUM, Strain/Indicator: TA98, Metabolic Activation: S-9, Method: STANDARD PLATE
# [3] = Test System: AMES SALMONELLA TYPHIMURIUM, Strain/Indicator: TA100, Metabolic Activation: NONE, Method: STANDARD PLATE
# [4] = Test System: AMES SALMONELLA TYPHIMURIUM, Strain/Indicator: TA100, Metabolic Activation: RAT, LIVER, S-9, AROCLOR 1254, Method: STANDARD PLATE
# [5] = Test System: AMES SALMONELLA TYPHIMURIUM, Strain/Indicator: TA1538, Metabolic Activation: RAT, LIVER, S-9, AROCLOR 1254, Method: STANDARD PLATE
# [6] = Test System: AMES SALMONELLA TYPHIMURIUM, Strain/Indicator: TA97, Metabolic Activation: NONE, Method: STANDARD PLATE
# [7] = Test System: AMES SALMONELLA TYPHIMURIUM, Strain/Indicator: TA1535, Metabolic Activation: NONE, Method: STANDARD PLATE
# [8] = Test System: AMES SALMONELLA TYPHIMURIUM, Strain/Indicator: TA1538, Metabolic Activation: NONE, Method: STANDARD PLATE
smiles,measurement,setting,value
N#Cc1ccc(/C=C\c2ccc([N+](=O)[O-])cc2)cc1,mutagenic call,"Test System: AMES SALMONELLA TYPHIMURIUM, Strain/Indicator: TA98 (NR), Metabolic Activation: NONE, Method: STANDARD PLATE",active; positive
same,mutagenic call,"Test System: AMES SALMONELLA TYPHIMURIUM, Strain/Indicator: TA98 (NR), Metabolic Activation: S-9, Method: STANDARD PLATE",active; positive
same,mutagenic call,[1],active; positive
same,mutagenic call,[2],active; positive
same,mutagenic call,"Test System: AMES SALMONELLA TYPHIMURIUM, Strain/Indicator: TA100 (NR), Metabolic Activation: NONE, Method: STANDARD PLATE",inactive; negative
same,mutagenic call,"Test System: AMES SALMONELLA TYPHIMURIUM, Strain/Indicator: TA100 (NR), Metabolic Activation: S-9, Method: STANDARD PLATE",inactive; negative
same,mutagenic call,[3],active; positive
same,mutagenic call,"Test System: AMES SALMONELLA TYPHIMURIUM, Strain/Indicator: TA100, Metabolic Activation: S-9, Method: STANDARD PLATE",active; positive
Cc1ccc(-c2nc3ccccc3o2)cc1,mutagenic call,[1],inactive; negative
same,mutagenic call,[2],inactive; negative
OCc1c2ccccc2c2ccc3cccc4ccc1c2c43,mutagenic call,"Test System: AMES SALMONELLA TYPHIMURIUM, Strain/Indicator: TA98, Metabolic Activation: RAT, LIVER, CYTOSOL AND PAPS-GENERATING SYSTEM, Method: PREINCUBATION",active; positive
same,mutagenic call,"Test System: AMES SALMONELLA TYPHIMURIUM, Strain/Indicator: TA100, Metabolic Activation: RAT, LIVER, CYTOSOL AND PAPS-GENERATING SYSTEM, Method: PREINCUBATION",active; positive
same,mutagenic call,[4],active; positive
same,mutagenic call,[5],active; positive
same,mutagenic call,"Test System: CHINESE HAMSTER V-79, Strain/Indicator: V-79 (HGPRT)/6-THIOGUANINE, Metabolic Activation: NONE",active; positive
same,mutagenic call,"Test System: CHINESE HAMSTER V-79, Strain/Indicator: V-79 (NA/K-ATPASE)/OUABAIN, Metabolic Activation: NONE",active; positive
same,mutagenic call,"Test System: CHINESE HAMSTER V-79, Strain/Indicator: V-79/OUABAIN, Metabolic Activation: HAMSTER, EMBRYO, CELL-MEDIATED, Method: STANDARD PLATE",active; positive
O=[N+]([O-])c1cc2ccc3cccc4ccc(c1)c2c34,mutagenic call,"Test System: AMES SALMONELLA TYPHIMURIUM, Strain/Indicator: TA96, Metabolic Activation: NONE, Method: STANDARD PLATE",active; positive
same,mutagenic call,[6],active; positive
same,mutagenic call,"Test System: AMES SALMONELLA TYPHIMURIUM, Strain/Indicator: TA98(1,8-DNP6), Metabolic Activation: NONE",active; positive
same,mutagenic call,"Test System: AMES SALMONELLA TYPHIMURIUM, Strain/Indicator: TA98(1,8-DNP6), Metabolic Activation: NONE, Method: STANDARD PLATE",active; positive
same,mutagenic call,"Test System: AMES SALMONELLA TYPHIMURIUM, Strain/Indicator: TA98(1,8-DNP6), Metabolic Activation: RAT, LIVER, S-9, AROCLOR 1254",inactive; negative
same,mutagenic call,"Test System: AMES SALMONELLA TYPHIMURIUM, Strain/Indicator: TA98(NR), Metabolic Activation: NONE",active; positive
same,mutagenic call,"Test System: AMES SALMONELLA TYPHIMURIUM, Strain/Indicator: TA98(NR), Metabolic Activation: NONE, Method: STANDARD PLATE",active; positive
same,mutagenic call,"Test System: AMES SALMONELLA TYPHIMURIUM, Strain/Indicator: TA98(NR), Metabolic Activation: RAT, LIVER, S-9, AROCLOR 1254",active; positive
same,mutagenic call,"Test System: AMES SALMONELLA TYPHIMURIUM, Strain/Indicator: TA98, Metabolic Activation: NONE",active; positive
same,mutagenic call,"Test System: AMES SALMONELLA TYPHIMURIUM, Strain/Indicator: TA98, Metabolic Activation: NONE, Method: PREINCUBATION",active; positive
same,mutagenic call,[1],active; positive
same,mutagenic call,"Test System: AMES SALMONELLA TYPHIMURIUM, Strain/Indicator: TA98, Metabolic Activation: RAT, LIVER, S-9, AROCLOR 1254",active; positive
same,mutagenic call,"Test System: AMES SALMONELLA TYPHIMURIUM, Strain/Indicator: TA98, Metabolic Activation: RAT, LIVER, S-9, PCB (10%), Method: PREINCUBATION",inactive; negative
same,mutagenic call,"Test System: AMES SALMONELLA TYPHIMURIUM, Strain/Indicator: TA100(NR), Metabolic Activation: NONE",inactive; negative
same,mutagenic call,"Test System: AMES SALMONELLA TYPHIMURIUM, Strain/Indicator: TA100(NR), Metabolic Activation: NONE, Method: STANDARD PLATE",inactive; negative
same,mutagenic call,"Test System: AMES SALMONELLA TYPHIMURIUM, Strain/Indicator: TA100(NR), Metabolic Activation: RAT, LIVER, S-9, AROCLOR 1254",active; positive
same,mutagenic call,"Test System: AMES SALMONELLA TYPHIMURIUM, Strain/Indicator: TA100, Metabolic Activation: NONE",active; positive
same,mutagenic call,[3],active; positive
same,mutagenic call,"Test System: AMES SALMONELLA TYPHIMURIUM, Strain/Indicator: TA100, Metabolic Activation: RAT, LIVER, S-9, AROCLOR 1254",active; positive
same,mutagenic call,"Test System: AMES SALMONELLA TYPHIMURIUM, Strain/Indicator: TA102, Metabolic Activation: NONE, Method: STANDARD PLATE",inactive; negative
same,mutagenic call,"Test System: AMES SALMONELLA TYPHIMURIUM, Strain/Indicator: TA104, Metabolic Activation: NONE",active; positive
same,mutagenic call,"Test System: AMES SALMONELLA TYPHIMURIUM, Strain/Indicator: TA104, Metabolic Activation: NONE, Method: STANDARD PLATE",active; positive
same,mutagenic call,"Test System: AMES SALMONELLA TYPHIMURIUM, Strain/Indicator: TA104, Metabolic Activation: RAT, LIVER, S-9, AROCLOR 1254",active; positive
same,mutagenic call,[7],inactive; negative
same,mutagenic call,[8],active; positive
same,mutagenic call,"Test System: AMES SALMONELLA TYPHIMURIUM, Strain/Indicator: TA7001, Metabolic Activation: NONE, Method: PREINCUBATION",active; positive
same,mutagenic call,"Test System: AMES SALMONELLA TYPHIMURIUM, Strain/Indicator: TA7002, Metabolic Activation: NONE, Method: PREINCUBATION",active; positive
same,mutagenic call,"Test System: AMES SALMONELLA TYPHIMURIUM, Strain/Indicator: TA7003, Metabolic Activation: NONE, Method: PREINCUBATION",active; positive
same,mutagenic call,"Test System: AMES SALMONELLA TYPHIMURIUM, Strain/Indicator: TA7004, Metabolic Activation: NONE, Method: PREINCUBATION",active; positive
same,mutagenic call,"Test System: AMES SALMONELLA TYPHIMURIUM, Strain/Indicator: TA7005, Metabolic Activation: NONE, Method: PREINCUBATION",active; positive
same,mutagenic call,"Test System: AMES SALMONELLA TYPHIMURIUM, Strain/Indicator: TA7006, Metabolic Activation: NONE, Method: PREINCUBATION",active; positive
C/C=C\c1cc(OC)c(OC)cc1OC,mutagenic call,[6],inactive; negative
same,mutagenic call,"Test System: AMES SALMONELLA TYPHIMURIUM, Strain/Indicator: TA97, Metabolic Activation: RAT, LIVER, S-9, AROCLOR 1254, Method: STANDARD PLATE",inactive; negative
same,mutagenic call,[1],inactive; negative
same,mutagenic call,"Test System: AMES SALMONELLA TYPHIMURIUM, Strain/Indicator: TA98, Metabolic Activation: RAT, LIVER, S-9, AROCLOR 1254, Method: STANDARD PLATE",inactive; negative
same,mutagenic call,[3],inactive; negative
same,mutagenic call,[4],inactive; negative
same,mutagenic call,[7],active; positive
same,mutagenic call,"Test System: AMES SALMONELLA TYPHIMURIUM, Strain/Indicator: TA1535, Metabolic Activation: RAT, LIVER, S-9, AROCLOR 1254, Method: STANDARD PLATE",inactive; negative
same,mutagenic call,"Test System: AMES SALMONELLA TYPHIMURIUM, Strain/Indicator: TA1537, Metabolic Activation: NONE, Method: STANDARD PLATE",inactive; negative
same,mutagenic call,"Test System: AMES SALMONELLA TYPHIMURIUM, Strain/Indicator: TA1537, Metabolic Activation: RAT, LIVER, S-9, AROCLOR 1254, Method: STANDARD PLATE",inactive; negative
same,mutagenic call,[8],inactive; negative
same,mutagenic call,[5],inactive; negative
same,mutagenic call,"Test System: UDS RAT HEPATOCYTES, Strain/Indicator: THY INCORP, Metabolic Activation: NONE, Method: LIQUID SCINTILLATION COUNTING",active; positive
COc1cccc2c1OC1(C)OOC21C (configuration not stated),mutagenic call,"Test System: AMES SALMONELLA TYPHIMURIUM, Strain/Indicator: TA100, Metabolic Activation: NONE, Method: PREINCUBATION",active; positive
